# Literature values as cited in US20220265591A1, “USE OF AN OSMOLYTE IN MANUFACTURE OF A MEDICAMENT FOR TREATMENT OF OCULAR DISORDERS” (SINGAPORE HEALTH SERVICES PTELTD, priority 2019, published 2022).
# Tested on: TGFBIp derived peptides
# Settings: 0.001-0.02% (0.03-0.6 mM), close to critical micellar concentration; cited from earlier work
substance,measurement,value
benzalkonium chloride,effect on amyloid fibril formation,accelerated the amyloid fibril formation
